Source: patent publication US20220378923A1, “BET DEGRADER” (KYOWA KIRIN CO., LTD., priority 2019, published 2022)

System: DCAF16 KO SU-DHL-4 cells
Experiment: Inhibitory effect on cell viability using SU-DHL-4 DCAF16 knock out (KO) cell line (Test Example 6)
Assay type: cell-based, human
Conditions: for Activity Attenuation Ratio: (SU-DHL-4 DCAF16 KO IC50)/(SU-DHL-4 WT IC50); for IC50: DCAF16 KO SU-DHL-4 cells, 72 hours, Cell Counting Kit-8, 50% inhibition of cell viability
Method in brief: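 SU-DHL-4 DLBCL cells carrying lentiviral Cas9 plus DCAF16-targeting sgRNA (three KO strains; non-targeting control strain), seeded 2000 cells/well, pre-cultured 18–25 h, then given 9-step compound dilutions (0.1% DMSO final) for 72 h at 37° C. Viability read by CCK-8 colorimetric assay.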

| SMILES | Activity Attenuation Ratio | IC50 (Homo sapiens) [nM] | IC50 [nM] |
| --- | --- | --- | --- |
| CCC(=O)N1c2ccccc2[C@H](Nc2ccc(-n3cc(CNC(=O)c4ccc(Cn5c(CC)cc6c5CCCC6=O)cc4)nn3)cc2)C[C@@H]1C [Compound 15f, 4-((2-Ethyl-4-oxo-4,5,6,7-tetrahydro-1H-indol-1-yl)methyl)-N-((1-(4-(((2S,4R)-2-methyl-1-propionyl-1,2,3,4-tetrahydroquinolin-4-yl)amino)phenyl)-1H-1,2,3-triazol-4-yl)methyl)benzamide] | 902 | 28.3 |  |
| CCC(=O)N1c2ccccc2[C@H](Nc2ccc(Cc3cnc4n3CCN(C(=O)c3ccc(N[C@@H]5C[C@H](C)N(C(=O)CC)c6ccccc65)cc3)C4)cc2)C[C@@H]1C [Compound 5q, 1-((2S,4R)-2-Methyl-4-((4-((7-(4-(((2S,4R)-2-methyl-1-propionyl-1,2,3,4-tetrahydroquinolin-4-yl)amino)benzoyl)-5,6,7,8-tetrahydroimidazo[1,2-a]pyrazin-3-yl)methyl)phenyl)amino)-3,4-dihydroquinolin-1(2H)-yl)propan-1-one] | 7078 | 622 |  |
| Cc1sc2c(c1C)C(c1ccc(NC(=O)C#CCNC(=O)c3ccc(C4=NCc5nnc(C)n5-c5sc(C)c(C)c54)cc3)cc1)=NCc1nnc(C)n1-2 [Compound 14e, N-(4-Oxo-4-((4-(2,3,9-trimethyl-6H-thieno[3,2-f][1,2,4]triazolo[4,3-a][1,4]diazepin-4-yl)phenyl)amino)but-2-yn-1-yl)-4-(2,3,9-trimethyl-6H-thieno[3,2-f][1,2,4]triazolo[4,3-a][1,4]diazepin-4-yl)benzamide] | 332 | 68.3 |  |
| CCC(=O)N1c2ccccc2[C@H](Nc2ccc(-n3cc(CNC(=O)N4CCC(N[C@@H]5C[C@H](C)N(C(=O)CC)c6ccccc65)CC4)nn3)cc2)C[C@@H]1C (relative stereo) [Compound 10b, 4-(((2S*,4R*)-2-Methyl-1-propionyl-1,2,3,4-tetrahydroquinolin-4-yl)amino)-N-((1-(4-(((2S,4R)-2-methyl-1-propionyl-1,2,3,4-tetrahydroquinolin-4-yl)amino)phenyl)-1H-1,2,3-triazol-4-yl)methyl)piperidine-1-carboxamide] | 524 | 180 |  |
| CCC(=O)N1c2ccccc2[C@H](Nc2ccc(NC(=O)CNC(=O)Nc3ccc(C4=NCc5nnc(C)n5-c5sc(C)c(C)c54)cc3)cc2)C[C@@H]1C [Compound 14f, N-(4-(((2S,4R)-2-Methyl-1-propionyl-1,2,3,4-tetrahydroquinolin-4-yl)amino)phenyl)-2-(3-(4-(2,3,9-trimethyl-6H-thieno[3,2-f][1,2,4]triazolo[4,3-a][1,4]diazepin-4-yl)phenyl)ureido)acetamide] | 22 | 2.95 |  |
| CCC(=O)N1c2ccccc2[C@H](Nc2ccc(NC(=O)C3CN(C(=O)c4ccc(N[C@@H]5C[C@H](C)N(C(=O)CC)c6ccccc65)cc4)C3)cc2)C[C@@H]1C (relative stereo) [Compound 2h, 1-(4-{[(2S,4R)-2-Methyl-1-propionyl-1,2,3,4-tetrahydroquinolin-4-yl]amino}benzoyl)-N-(4-{[(2S*,4R*)-2-methyl-1-propionyl-1,2,3,4-tetrahydroquinolin-4-yl]amino}phenyl)azetidine-3-carboxamide] | 408 | 12.2 |  |
| CCC(=O)N1c2ccccc2[C@H](N[C@H]2CC[C@H](NC(=O)C#CCNC(=O)[C@H]3CC[C@H](N[C@@H]4C[C@H](C)N(C(=O)CC)c5ccccc54)CC3)CC2)C[C@@H]1C (relative stereo) [Compound 9d, (1R,4R)-4-(((2S*,4R*)-2-Methyl-1-propionyl-1,2,3,4-tetrahydroquinolin-4-yl)amino)-N-(4-(((1R,4R)-4-(((2S,4R)-2-methyl-1-propionyl-1,2,3,4-tetrahydroquinolin-4-yl)amino)cyclohexyl)amino)-4-oxobut-2-yn-1-yl)cyclohexane-1-carboxamide] | 348 |  | 263 |
| CCC(=O)N1c2ccccc2[C@H](Nc2ccc(NC(=O)CCCC(=O)NC3CCC(N[C@@H]4C[C@H](C)N(C(=O)CC)c5ccccc54)CC3)cc2)C[C@@H]1C (stereo partly drawn) [Compound 7o, N^1-((1R,4r)-4-(((2S,4R)-2-Methyl-1-propionyl-1,2,3,4-tetrahydroquinolin-4-yl)amino)cyclohexyl)-N^5-(4-(((2S,4R)-2-methyl-1-propionyl-1,2,3,4-tetrahydroquinolin-4-yl)amino)phenyl)glutaramide] | 750 |  | 397 |
| CCC(=O)N1c2ccccc2[C@H](NCCCCCCCC(=O)Nc2ccc(N[C@@H]3C[C@H](C)N(C(=O)CC)c4ccccc43)cc2)C[C@@H]1C (relative stereo) [Compound 12h, 8-(((2S*,4R*)-2-Methyl-1-propionyl-1,2,3,4-tetrahydroquinolin-4-yl)amino)-N-(4-(((2S,4R)-2-methyl-1-propionyl-1,2,3,4-tetrahydroquinolin-4-yl)amino)phenyl)octanamide] | 191 | 595 |  |
| Cc1sc2c(c1C)C(c1ccc(C(=O)NCCCNC(=O)c3ccc(C4=N[C@@H](CC(=O)OC(C)(C)C)c5nnc(C)n5-c5sc(C)c(C)c54)cc3)cc1)=N[C@@H](CC(=O)OC(C)(C)C)c1nnc(C)n1-2 [Compound 1b, Di-tert-butyl 2,2′-[(6S,6′S)-({[propane-1,3-diylbis(azanediyl)]bis(carbonyl)}bis(4,1-phenylene))bis(2,3,9-trimethyl-6H-thieno[3,2-f][1,2,4]triazolo[4,3-a][1,4]diazepine-4,6-diyl)]diacetate] | 56 | 36.7 |  |
| CCC(=O)N1c2ccccc2[C@H](Nc2ccc(C(=O)NCCCNC(=O)c3ccc(N[C@@H]4C[C@H](C)N(C(=O)CC)c5ccccc54)cc3)cc2)C[C@@H]1C (relative stereo) [Compound 1a, N,N′-(Propane-1,3-diyl)bis(4-{[(2S*,4R*)-2-methyl-1-propionyl-1,2,3,4-tetrahydroquinolin-4-yl]amino}benzamide)] | 61 | 68.7 |  |
| Cc1sc2c(c1C)C(c1ccc(Cl)cc1)=N[C@@H](CC(=O)NCCOCCOCCOCCOCCOCCOCCOCCNC(=O)C[C@@H]1N=C(c3ccc(Cl)cc3)c3c(sc(C)c3C)-n3c(C)nnc31)c1nnc(C)n1-2 [compound 2, reference compound] | 0.32 |  | 75.7 |
| CCC(=O)N1c2ccccc2[C@H](Nc2ccc(C(=O)N3CC(C(=O)N[C@H]4CC[C@H](N[C@@H]5C[C@H](C)N(C(=O)CC)c6ccccc65)CC4)C3)cc2)C[C@@H]1C [Compound 8r, 1-(4-(((2S,4R)-2-Methyl-1-propionyl-1,2,3,4-tetrahydroquinolin-4-yl)amino)benzoyl)-N-((1R,4R)-4-(((2S,4R)-2-methyl-1-propionyl-1,2,3,4-tetrahydroquinolin-4-yl)amino)cyclohexyl)azetidine-3-carboxamide] | 224 |  | 67.4 |
| CCC(=O)N1c2ccccc2[C@H](Nc2ccc(C(=O)NCC(=O)CNC(=O)c3ccc(N[C@@H]4C[C@H](C)N(C(=O)CC)c5ccccc54)cc3)cc2)C[C@@H]1C [Compound 1l, N,N′-(2-Oxopropane-1,3-diyl)bis(4-{[(2S,4R)-2-methyl-1-propionyl-1,2,3,4-tetrahydroquinolin-4-yl]amino}benzamide)] | 3357 | 101 |  |
| CCC(=O)N1c2ccccc2[C@H](Nc2ccc(C(=O)NC3CCN(C(=O)c4ccc(N[C@@H]5C[C@H](C)N(C(=O)CC)c6ccccc65)cc4)CC3)cc2)C[C@@H]1C (relative stereo) [Compound 1c, 4-{[(2S*,4R*)-2-Methyl-1-propionyl-1,2,3,4-tetrahydroquinolin-4-yl]amino}-N-[1-(4-{[(2S*,4R*)-2-methyl-1-propionyl-1,2,3,4-tetrahydroquinolin-4-yl]amino}benzoyl)piperidin-4-yl]benzamide] | 131 | 385 |  |
| CCC(=O)N1c2ccccc2[C@H](Nc2ccc(SCCNC(=O)c3ccc(C4=N[C@@H](CC(=O)OCCN(C)C)c5nnc(C)n5-c5sc(C)c(C)c54)cc3)cc2)C[C@@H]1C [Compound 13a, 2-(Dimethylamino)ethyl 2-((S)-2,3,9-trimethyl-4-(4-((2-((4-(((2S,4R)-2-methyl-1-propionyl-1,2,3,4-tetrahydroquinolin-4-yl)amino)phenyl)thio)ethyl)carbamoyl)phenyl)-6H-thieno[3,2-f][1,2,4]triazolo[4,3-a][1,4]diazepin-6-yl)acetate] | 35 | 9.31 |  |
| CCC(=O)N1c2ccccc2[C@H](Nc2ccc(NC(=O)CCCC(=O)Nc3cccc(Oc4ccc(NS(=O)(=O)CC)cc4-c4cn(C)c(=O)cc4OC)c3)cc2)C[C@@H]1C [Compound 16j, N^1-(3-(4-(Ethylsulfonamide)-2-(4-methoxy-1-methyl-6-oxo-1,6-dihydropyridin-3-yl)phenoxy)phenyl)-N5-(4-(((2S,4R)-2-methyl-1-propionyl-1,2,3,4-tetrahydroquinolin-4-yl)amino)phenyl)glutaramide] | 213 |  | 106 |
| CCC(=O)N1c2ccccc2[C@H](Nc2ccc(NC(=O)CCCC(=O)NC3CCC(Cn4cc(-c5c(C)noc5C)ccc4=O)CC3)cc2)C[C@@H]1C (stereo partly drawn) [Compound 16p, N^1-((1r,4r)-4-((5-(3,5-Dimethylisoxazol-4-yl)-2-oxopyridin-1(2H)-yl)methyl)cyclohexyl)-N5-(4-(((2S,4R)-2-methyl-1-propionyl-1,2,3,4-tetrahydroquinolin-4-yl)amino)phenyl)glutaramide] | 3390 |  | 925 |
